Data from article PMC6104465, “Synthesis and in vitro and in vivo evaluation of urea-based PSMA inhibitors with increased lipophilicity” (EJNMMI Research, 2018).
Read-outs that look alike come from different tables or passages of the source. Values belong to the compound of their own block, whether it stands above or below them.

Assays:
PSMA [1] = molecular target: T1, PSMA (Homo sapiens, UniProt Q04609); assay: competitive binding assay on LNCaP cells (radioligand 125I-IBA); settings: read-out: IC50 (affinity to PSMA)
T1 construct: endogenous in cells; host or cells: LNCaP cells (CLS: 300265)
Experimental: The effect of the lipophilic (aromatic) modifications in the spacer unit of the acetylated PSMA inhibitors 1–9 on the IC50 to PSMA was determined in a competitive binding assay on PSMA-expressing LNCaP cells.
The PSMA affinity was determined as described previously. In brief, 150,000 LNCaP cells were seeded into 24-well plates one day prior to the experiment. […] After removal of the supernatant, the cells were washed once with HBSS and subsequently lysed with 1 n NaOH. Both fractions were quantified in a γ-counter. Using the Graphpad Prism software, binding curves were plotted and IC50 values were extracted. Three independent determinations were performed in triplicate for each compound.

human serum albumin [2] = molecular target: T2, human serum albumin (Homo sapiens, UniProt P02768); assay: human serum albumin binding, HPLC on Chiralpak HSA column; assay type: in vitro ADME; settings: for Log K HSA: calibration reference substances, logarithmic K from the literature HSA binding, ref [3, 4]; for bound to HSA: HPLC, Chiralpak HSA column
T2 construct: purchased Daicel Chemical Industries, purchased from Chiral Technologies Europe (Illkirch, France) Chiralpak HSA (5 μm, 50 × 3 mm)
Experimental: High in vivo plasma protein binding increases the plasma half-life of the radiopharmaceutical and therefore might offer beneficiary effects on the tracer distribution (higher uptake into target tissue) but can also lead to increased background activity especially at early time points. In general, drugs binding to plasma proteins with high affinity feature moderate to high lipophilicity, in many cases due to halogenated aromatic groups. […] Human albumin binding was determined, applying a modified HPLC method.
Mobile phase A was an ammonium acetate buffer (50 mM, pH 6.9), mobile phase B was 2-propanol, the flow rate was 0.5 mL/min, and equilibration with 0% B for 3 min was followed by a gradient of 0% B to 20% B to the end of each run within 45 min. To check the column performance and to conduct the non-linear regression, the HSA column was calibrated each day with nine reference substances. Afterward, the PSMA inhibitors with unknown HSA binding were measured. The retention times and factors together with correlation curve are found in Additional file 1.
HSA binding experiments were performed as previously described. […] For each run, 10 µL of the solution containing the inhibitor was injected into the RP-HPLC system and the retention time measured. […] Non-linear regression was established with OriginPro 2016G.

human serum albumin [3] = molecular target: T2, human serum albumin; parameters: method as in Valko et. al. or Yamazaki et al. [3, 4]; settings: calibration reference substances; ref Valko et. al. or Yamazaki et al. [3, 4]; cited from earlier work
PSMA [4] = molecular target: T1, PSMA; settings: LNCaP cells 150,000 cells/well, 4 °C, 1 h, c(125I-IBA) = 0.2 nM; mean ± SD; ref [17]; read-out: IC50 (affinity to PSMA); cited from earlier work
[5] = LNCaP cells 150,000 cells/well, 4 °C, 1 h, c(125I-IBA) = 0.2 nM, mean ± SD (n = 3)

T2 sequence (P02768 25-609): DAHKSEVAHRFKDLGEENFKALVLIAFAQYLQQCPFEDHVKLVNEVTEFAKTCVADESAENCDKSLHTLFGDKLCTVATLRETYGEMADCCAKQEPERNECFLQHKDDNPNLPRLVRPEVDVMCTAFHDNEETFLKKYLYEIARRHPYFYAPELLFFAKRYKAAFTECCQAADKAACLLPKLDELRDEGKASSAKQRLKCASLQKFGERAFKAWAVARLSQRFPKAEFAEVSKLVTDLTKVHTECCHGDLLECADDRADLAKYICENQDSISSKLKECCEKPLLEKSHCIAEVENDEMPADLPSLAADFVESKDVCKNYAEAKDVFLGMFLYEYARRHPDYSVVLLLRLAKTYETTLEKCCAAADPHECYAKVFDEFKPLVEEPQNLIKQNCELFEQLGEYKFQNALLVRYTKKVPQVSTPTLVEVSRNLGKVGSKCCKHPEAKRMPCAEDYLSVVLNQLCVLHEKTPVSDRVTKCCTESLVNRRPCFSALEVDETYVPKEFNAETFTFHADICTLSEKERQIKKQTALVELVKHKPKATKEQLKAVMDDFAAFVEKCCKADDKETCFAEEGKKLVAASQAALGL
T1 sequence (Q04609 whole entry): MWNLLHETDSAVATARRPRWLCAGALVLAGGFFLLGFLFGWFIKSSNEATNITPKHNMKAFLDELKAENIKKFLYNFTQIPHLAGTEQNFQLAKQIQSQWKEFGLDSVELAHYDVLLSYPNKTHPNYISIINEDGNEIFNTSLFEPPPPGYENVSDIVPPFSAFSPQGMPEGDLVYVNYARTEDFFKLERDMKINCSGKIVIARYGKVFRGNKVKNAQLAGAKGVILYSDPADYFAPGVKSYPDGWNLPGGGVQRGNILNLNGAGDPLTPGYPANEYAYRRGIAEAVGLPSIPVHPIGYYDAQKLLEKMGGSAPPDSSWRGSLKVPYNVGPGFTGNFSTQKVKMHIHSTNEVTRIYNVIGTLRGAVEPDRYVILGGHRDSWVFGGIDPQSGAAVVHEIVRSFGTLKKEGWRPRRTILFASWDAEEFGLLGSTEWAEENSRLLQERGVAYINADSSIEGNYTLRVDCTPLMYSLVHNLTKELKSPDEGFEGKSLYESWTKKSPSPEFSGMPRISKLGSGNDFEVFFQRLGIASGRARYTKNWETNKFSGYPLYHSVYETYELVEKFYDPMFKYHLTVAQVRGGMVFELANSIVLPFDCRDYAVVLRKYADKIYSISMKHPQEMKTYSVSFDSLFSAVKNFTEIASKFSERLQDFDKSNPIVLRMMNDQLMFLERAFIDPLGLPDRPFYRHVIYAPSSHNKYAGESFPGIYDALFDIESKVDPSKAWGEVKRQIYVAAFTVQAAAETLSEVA

Compound: Oc1ccccc1 [Phenol]
Log K HSA (human serum albumin [2]): -0.59
Lit. HSA% (literature value of human serum albumin binding) (human serum albumin [3]): 20.69%

Compound: CC(=O)N[C@@H](Cc1ccc(O)cc1)C(=O)N[C@@H](Cc1ccc(-c2ccccc2)cc1)C(=O)N[C@@H](CCCCNC(=O)CCCCCCC(=O)NCCCC[C@H](NC(=O)N[C@@H](CCC(=O)O)C(=O)O)C(=O)O)C(=O)O [PSMA inhibitor 4, Ac-Y-(Biphenyl-A)K(Sub-KuE)]
IC50 (PSMA [1]): 139 ± 117 nM

Compound: O=C(O)c1ccccc1 [Benzoic Acid]
Lit. HSA% (literature value of human serum albumin binding) (human serum albumin [3]): 34.27%

Compound: O=C(O)CC[C@H](NC(=O)N[C@@H](CCCCNC(=O)CCCCCCC(=O)NCCCC[C@@H](NC(=O)[C@@H](Cc1ccc2ccccc2c1)NC(=O)[C@@H](Cc1ccc(O)cc1)NC(=O)CCC(C(=O)O)N1CCN(CC(=O)O)CCN(CC(=O)O)CCN(CC(=O)O)CC1)C(=O)O)C(=O)O)C(=O)O (some centres unmarked) [PSMA inhibitor 10, DOTAGA-y-2-nal-k(Sub-KuE)]
IC50 (PSMA [1]; [5]): 8.5 ± 2.5 nM

Compound: CCCN(CCC)S(=O)(=O)c1ccc(C(=O)O)cc1 [Probenecid]
Log K HSA (human serum albumin [2]): 1.20
Lit. HSA% (literature value of human serum albumin binding) (human serum albumin [3]): 95.00%

Compound: ^natGa-DOTAGA-(I-y)fk(Sub-KuE) [^natGa-PSMA I&T]
IC50 (PSMA [4]): 9.3 ± 3.3 nM

Compound: Nc1ccccc1 [Aniline]
Log K HSA (human serum albumin [2]): -0.79
Lit. HSA% (literature value of human serum albumin binding) (human serum albumin [3]): 14.06%

Compound: COc1ccc(Cl)cc1C(=O)NCCc1ccc(S(=O)(=O)NC(=O)NC2CCCCC2)cc1 [Glibenclamide]
Log K HSA (human serum albumin [2]): 1.69
Lit. HSA% (literature value of human serum albumin binding) (human serum albumin [3]): 99.00%

Compound: ^natGa-DOTAGA-y-2-nal-k((I-f)-Glut-KuE) [^natGa-11]
IC50 (PSMA [1]; [5]): 9.3 ± 2.9 nM

Compound: CC(=O)N[C@@H](Cc1ccc(O)cc1)C(=O)N[C@@H](Cc1ccccc1)C(=O)N[C@@H](CCCCNC(=O)CCCCCCC(=O)NCCCC[C@H](NC(=O)N[C@@H](CCC(=O)O)C(=O)O)C(=O)O)C(=O)O [PSMA inhibitor 1, Ac-YFK(Sub-KuE)]
IC50 (PSMA [1]): 15 ± 1.3 nM

Compound: CC(=O)N[C@@H](Cc1ccc(O)cc1)C(=O)N[C@@H](Cc1cc(I)c(O)c(I)c1)C(=O)N[C@@H](CCCCNC(=O)CCCCCCC(=O)NCCCC[C@H](NC(=O)N[C@@H](CCC(=O)O)C(=O)O)C(=O)O)C(=O)O [PSMA inhibitor 8, Ac-Y(3,5-di-I-Y)K(Sub-KuE)]
IC50 (PSMA [1]): 3.8 ± 0.6 nM

Compound: O=C(O)CC[C@H](NC(=O)N[C@@H](CCCCNC(=O)CCCCCCC(=O)NCCCC[C@@H](NC(=O)[C@@H](Cc1ccccc1)NC(=O)[C@@H](Cc1ccc(O)c(I)c1)NC(=O)CCC(C(=O)O)N1CCN(CC(=O)O)CCN(CC(=O)O)CCN(CC(=O)O)CC1)C(=O)O)C(=O)O)C(=O)O (some centres unmarked) [PSMA I&T, DOTAGA-(I-y)fk(Sub-KuE)]
IC50 (PSMA [4]): 10.2 ± 3.5 nM

Now from value to compound, other results behind:

IC50 (PSMA [1]): 4.3 ± 0.9 nM
Compound: CC(=O)N[C@@H](Cc1ccc(O)cc1)C(=O)N[C@@H](Cc1cccc2ccccc12)C(=O)N[C@@H](CCCCNC(=O)CCCCCCC(=O)NCCCC[C@H](NC(=O)N[C@@H](CCC(=O)O)C(=O)O)C(=O)O)C(=O)O [PSMA inhibitor 5, Ac-Y-1-Nal-K(Sub-KuE)]

IC50 (PSMA [1]; [5]): 9.8 ± 3.2 nM
Compound: ^natGa-DOTAGA-y-2-nal-k(Sub-KuE) [^natGa-10]

bound to HSA (human serum albumin [2]): 79%
Compound: ^natLu-DOTAGA-(I-y)fk(Sub-KuE) [^natLu-PSMA I&T]
IC50 (PSMA [4]): 7.9 ± 2.4 nM

IC50 (PSMA [1]): 6.8 ± 3.3 nM
Compound: CC(=O)N[C@@H](Cc1ccc(O)cc1)C(=O)N[C@@H](Cc1c[nH]c2ccccc12)C(=O)N[C@@H](CCCCNC(=O)CCCCCCC(=O)NCCCC[C@H](NC(=O)N[C@@H](CCC(=O)O)C(=O)O)C(=O)O)C(=O)O [PSMA inhibitor 2, Ac-YWK(Sub-KuE)]

IC50 (PSMA [1]): 3.9 ± 1.7 nM
Compound: CC(=O)N[C@@H](Cc1ccc(O)cc1)C(=O)N[C@@H](Cc1ccc2ccccc2c1)C(=O)N[C@@H](CCCCNC(=O)CCCCCCC(=O)NCCCC[C@H](NC(=O)N[C@@H](CCC(=O)O)C(=O)O)C(=O)O)C(=O)O [PSMA inhibitor 6, Ac-Y-2-Nal-K(Sub-KuE)]

IC50 (PSMA [1]; [5]): 4.6 ± 0.9 nM
Compound: O=C(O)CC[C@H](NC(=O)N[C@@H](CCCCNC(=O)[C@@H](Cc1ccc(I)cc1)NC(=O)CCCC(=O)NCCCC[C@@H](NC(=O)[C@@H](Cc1ccc2ccccc2c1)NC(=O)[C@@H](Cc1ccc(O)cc1)NC(=O)CCC(C(=O)O)N1CCN(CC(=O)O)CCN(CC(=O)O)CCN(CC(=O)O)CC1)C(=O)O)C(=O)O)C(=O)O (some centres unmarked) [PSMA inhibitor 11, DOTAGA-y-2-nal-k((I-f)-Glut-KuE)]

IC50 (PSMA [1]): 7.2 ± 0.9 nM
Compound: CC(=O)N[C@@H](Cc1ccc(O)cc1)C(=O)N[C@@H](Cc1ccc(O)c(C)c1)C(=O)N[C@@H](CCCCNC(=O)CCCCCCC(=O)NCCCC[C@H](NC(=O)N[C@@H](CCC(=O)O)C(=O)O)C(=O)O)C(=O)O [PSMA inhibitor 9, Ac-Y(3-CH3-Y)K(Sub-KuE)]

IC50 (PSMA [1]; [5]): 2.1 ± 0.8 nM
bound to HSA (human serum albumin [2]): 83%
Compound: ^natLu-DOTAGA-y-2-nal-k(Sub-KuE) [^natLu-10]

IC50 (PSMA [1]; [5]): 6.1 ± 1.6 nM
bound to HSA (human serum albumin [2]): 97%
Compound: ^natLu-DOTAGA-y-2-nal-k((I-f)-Glut-KuE) [^natLu-11]

IC50 (PSMA [1]): 7.4 ± 0.5 nM
Compound: CC(=O)N[C@@H](Cc1ccc(O)cc1)C(=O)N[C@@H](Cc1ccc([N+](=O)[O-])cc1)C(=O)N[C@@H](CCCCNC(=O)CCCCCCC(=O)NCCCC[C@H](NC(=O)N[C@@H](CCC(=O)O)C(=O)O)C(=O)O)C(=O)O [PSMA inhibitor 7, Ac-Y(4-NO2-F)K(Sub-KuE)]
